In US8912200B2, “Alkynyl substituted pyrimidinyl-pyrroles active as kinases inhibitors” (Nerviano Medical Sciences S.R.L., priority 2011, dated 2014):

Assays:
Lyn full length = target: T1, Lyn full length (Homo sapiens, UniProt P07948); assay: Biochemical assay for inhibitors of Lyn (Src family) kinase activity; settings: Lyn full length 1 nM, 25 μM ATP
T1 construct: The assay has been performed using Lyn full length
Text: Biochemical Assay for Inhibitors of Lck and Lyn (Src Family) Kinases Activity
(§1) Specific Lck and Lyn substrates are trans-phosphorylated by Lck and Lyn kinases in the presence of ATP traced with 33P-γ-ATP. At the end of the phosphorylation reaction, the unreacted ATP, cold and radioactive, is captured by an excess of dowex ion exchange resin that eventually settles by gravity to the bottom of the reaction plate. The supernatant is subsequently withdrawn and transferred into a counting plate that is then evaluated by β-counting.
Lyn Specific Assay Conditions
The assay has been performed using Lyn full length (accession number P07948 of UniProtKB/Swiss-Prot database).
Kinase buffer was composed of 50 mM HEPES pH 7.5 containing 3 mM MgCl2, 1 mM DTT, 3 μM Na3VO4, and 0.2 mg/mL BSA.
The Lyn kinase assay was run with a final enzyme concentration of 1 nM, in the presence of 25 μM ATP, 1.5 nM 33P-γ-ATP and 250 μM of substrate ABI 1 (Aminoacid sequence: EAIYAAPFAKKK—SEQ ID NO: 3). The peptidic substrate was purchased from American Peptide Company (Sunnyvale, Calif.).
(§2) For IC50 determination, test compounds are received as a 1 mM solution in 100% DMSO, distributed into 96 well plates: compounds are then plated into the first column of a microtiter plate (A1 to G1), 100 μL/well.
(§3) An automated station for serial dilutions (Biomek FX, Beckman) is used for producing 1:3 dilutions in 100% DMSO, from line A1 to A10, and for all the compounds in the column. Moreover, 4-5 copies of daughter plates are prepared by reformatting 5 μL of this first set of 100% DMSO dilution plates into 384 deep well-plates: one of these plates with the serial dilutions of test compounds will be thawed the day of the experiments, reconstituted at a 3× concentration with water and used in the IC50 determination assays. In a standard experiment, the highest concentration (3×) of all compounds is 30 μM, while the lowest one is 1.5 nM. Each 384 well-plate will contain at least one curve of the standard inhibitor staurosporine and reference wells (total enzyme activity vs. no enzymatic activity) for the Z′ and signal to background evaluation.
(§4) 384-well plates, V bottom (test plates) are prepared with 5 μL of the compound dilution (3×) and then placed onto a PlateTrak 12 robotized station (Perkin Elmer; the robot has one 384-tip pipetting head for starting the assay plus one 96-tip head for dispensing the resin) together with one reservoir for the Enzyme mix (3×) and one for the ATP mix (3×). At the start of the run, the robot aspirates 5 μL of ATP mix, makes an air gap inside the tips (3 μl) and aspirates 5 μL of JAK2 mix. The following dispensation into the plates plus 3 cycles of mixing, done by the robot itself, starts the kinase reaction. At this point, the correct concentrations are restored for all the reagents. The robot incubates the plates for 60 minutes at room temperature, and then stops the reaction by pipetting 60 μL of dowex resin suspension into the reaction mix. In order to avoid tip clogging, wide bore tips are used to dispense the resin suspension. Three cycles of mixing are done immediately after the addition of the resin. Another mixing cycle is performed after all the plates are stopped, this time using normal tips: the plates are then allowed to rest for about one hour in order to allow resin sedimentation. At this point, 27 μL of the supernatant are transferred into 384-Optiplates (Perkin-Elmer), with 50 μL of Microscint 40 (Perkin-Elmer); after 5 min of orbital shaking the plates are read on a Perkin-Elmer Top Count radioactivity counter.
Data are analyzed by an internally customized version of the SW package “Assay Explorer” that provides sigmoidal fitting of the ten-dilutions curves for IC50 determination in the secondary assays/hit confirmation routines.

JAK2 kinase domain = target: T2, JAK2 kinase domain (Homo sapiens, UniProt O60674); assay: Biochemical assay for inhibitors of JAK kinase activity (JAK2, 33P-γ-ATP/dowex resin); settings: JAK2 kinase domain 1 nM, 60 μM ATP
T2 construct: commercially available JAK2 kinase domain; purchased Invitrogen, Eugene, Oreg
Text: Biochemical Assay for Inhibitors of JAK Kinase Activity
as §1, with “Specific JAK2, JAK1 or JAK3 peptide” for “Specific Lck and Lyn”, “by JAK” for “by Lck and Lyn”
500 g of wet resin (SIGMA, custom prepared resin DOWEX 1×8 200-400 mesh, 2.5 Kg) are weighed out and diluted 2 to 1 in 150 mM sodium formate, pH 3.00. The resin is allowed to settle down overnight and then the supernatant is discarded. After three washes as above over a couple of days, the resin is allowed to settle and two volumes (with respect to the resin volume) of 150 mM sodium formate buffer are added.
Kinase buffer was composed of 50 mM HEPES pH 7.5 containing 10 mM MgCl2, 2.5 mM DTT, 10 μM Na3VO4 and 0.2 mg/mL BSA.
JAK2 Specific Assay Conditions
The JAK2 kinase assay was run with a final enzyme concentration of 1 nM, in the presence of 60 μM ATP, 3 nM 33P-γ-ATP and 64 μM of substrate BioDBn*306 (Aminoacid sequence: LPLDKDYYVVREPGQ—SEQ ID NO: 1). The peptidic substrate was purchased from American Peptide Company (Sunnyvale, Calif.).
as §2, §3
as §4, with “counter. […]” for “counter.”

[1] = system: JAK2 dependent human megakaryoblastic leukemia cell line SET-2; assay: Cell proliferation assay (CellTiter-Glo, 72 hours); type: cell-based; settings: Homo sapiens, SET-2 cells
Procedure: The JAK2 dependent human megakaryoblastic leukemia cell line SET-2 (DSMZ, Braunschweig GERMANY) and the JAK2 independent human chronic myelogenous leukaemia cell line K562 (ECACC, Wiltshire, UK) were cultured in RPMI-1640 medium-Glutamax (Gibco BRL, Gaithesburg, Md., USA), supplemented with 10% fetal bovine serum (FBS) at 37° C. and 5% CO2.
Cell Proliferation Assay:
Approximately 5×10^3 cells were plated into 384 microtiter plate wells in 50 μL of growth media with different concentrations of inhibitors. The cells were incubated at 37° C. and 5% CO2 for 72 hours, then the plates were processed using CellTiter-Glo assay (Promega, Madison, Wis., USA) following the manufacturer's instruction. Briefly 25 μL/well reagent solution is added to each well and after 5 minutes shaking the micro-plates are read by Envision luminometer (PerkinElmer, Waltham, Mass., USA).
Data are analyzed by Symix Assay Explorer software (Symix Technologies Inc.) that provides sigmoidal fitting algorithm of the 8 points dilutions curves for IC50 determination.

T1 sequence (P07948 whole entry): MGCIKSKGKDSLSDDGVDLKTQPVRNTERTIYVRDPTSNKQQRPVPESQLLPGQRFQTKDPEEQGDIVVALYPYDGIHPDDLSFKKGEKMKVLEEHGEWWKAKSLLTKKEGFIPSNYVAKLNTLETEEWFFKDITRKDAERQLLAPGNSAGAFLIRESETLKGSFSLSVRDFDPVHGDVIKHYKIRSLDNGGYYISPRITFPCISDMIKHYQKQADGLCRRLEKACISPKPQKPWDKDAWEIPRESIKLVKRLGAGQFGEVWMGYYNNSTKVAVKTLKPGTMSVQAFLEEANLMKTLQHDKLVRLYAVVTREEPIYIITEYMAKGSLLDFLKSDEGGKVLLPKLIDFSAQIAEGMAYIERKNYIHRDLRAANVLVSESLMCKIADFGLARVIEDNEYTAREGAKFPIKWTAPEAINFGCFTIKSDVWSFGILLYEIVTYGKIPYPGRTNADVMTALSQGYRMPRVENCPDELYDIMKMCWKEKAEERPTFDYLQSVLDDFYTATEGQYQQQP
T2 sequence (O60674 849-1124 limits assumed): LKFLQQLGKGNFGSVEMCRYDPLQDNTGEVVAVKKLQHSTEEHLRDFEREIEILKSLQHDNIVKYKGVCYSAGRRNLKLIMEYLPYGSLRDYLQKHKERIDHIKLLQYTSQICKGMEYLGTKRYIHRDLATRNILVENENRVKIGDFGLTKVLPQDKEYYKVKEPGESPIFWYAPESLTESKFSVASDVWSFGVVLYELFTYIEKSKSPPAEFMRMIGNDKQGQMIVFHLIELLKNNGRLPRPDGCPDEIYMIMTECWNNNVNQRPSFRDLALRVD

IC50 (Lyn full length) [nM] | IC50 (JAK2 kinase domain) [nM] | IC50 [1] [nM] | Structure (SMILES)
6 | 2 | 520 | Cc1ccc(Cl)cc1-c1[nH]c(-c2nc(N)ncc2C#Cc2cccc(O)c2)cc1C(N)=O [compound 2, 5-{2-Amino-5-[(3-hydroxyphenyl)ethynyl]pyrimidin-4-yl}-2-(5-chloro-2-methylphenyl)-1H-pyrrole-3-carboxamide]
3 | 1 | 240 | Cc1ccc(Cl)cc1-c1[nH]c(-c2nc(N)ncc2C#Cc2ccccc2N)cc1C(N)=O [compound 6, 5-{2-Amino-5-[(2-aminophenyl)ethynyl]pyrimidin-4-yl}-2-(5-chloro-2-methylphenyl)-1H-pyrrole-3-carboxamide]
10 | 1 | 340 | COc1ccc(N)cc1C#Cc1cnc(N)nc1-c1cc(C(N)=O)c(-c2cc(Cl)ccc2C)[nH]1 [compound 9, 5-{2-Amino-5-[(5-amino-2-methoxyphenyl)ethynyl]pyrimidin-4-yl}-2-(5-chloro-2-methylphenyl)-1H-pyrrole-3-carboxamide]
8 | 4 | 90 | Cc1ccc(Cl)cc1-c1[nH]c(-c2nc(N)ncc2C#Cc2ccc(N3CCN(C)CC3)cc2)cc1C(N)=O [compound 11, 5-(2-Amino-5-{[4-(4-methylpiperazin-1-yl)phenyl]ethynyl}pyrimidin-4-yl)-2-(5-chloro-2-methylphenyl)-1H-pyrrole-3-carboxamide]
8 | 4 | – | Cc1ccc(Cl)cc1-c1[nH]c(-c2nc(N)ncc2C#Cc2cccc(NC3CCOCC3)c2)cc1C(N)=O [compound 13, 5-(2-Amino-5-{[3-(tetrahydro-2H-pyran-4-ylamino)phenyl]ethynyl}pyrimidin-4-yl)-2-(5-chloro-2-methylphenyl)-1H-pyrrole-3-carboxamide]
5 | 2 | 240 | Cc1ccc(Cl)cc1-c1[nH]c(-c2nc(N)ncc2C#Cc2cccc(NCCO)c2)cc1C(N)=O [compound 15, 5-[2-Amino-5-({3-[(2-hydroxyethyl)amino]phenyl}ethynyl)pyrimidin-4-yl]-2-(5-chloro-2-methylphenyl)-1H-pyrrole-3-carboxamide]
1 | 1 | 580 | Cc1ccc(Cl)cc1-c1[nH]c(-c2nc(N)ncc2C#Cc2cccc(C(=O)N3CCN(C)CC3)c2)cc1C(N)=O [compound 27, 5-[2-Amino-5-({3-[(4-methylpiperazin-1-yl)carbonyl]phenyl}ethynyl)pyrimidin-4-yl]-2-(5-chloro-2-methylphenyl)-1H-pyrrole-3-carboxamide]

Second part, the molecule before the results:

Structure (SMILES) | IC50 (Lyn full length) [nM] | IC50 (JAK2 kinase domain) [nM] | IC50 [1] [nM]
Cc1ccc(Cl)cc1-c1[nH]c(-c2nc(N)ncc2C#Cc2cccc(N)c2)cc1C(N)=O [compound 4, 5-{2-amino-5-[(3-aminophenyl)ethynyl]pyrimidin-4-yl}-2-(5-chloro-2-methylphenyl)-1H-pyrrole-3-carboxamide] | 1 | 1 | 150
Cc1ccc(Cl)cc1-c1[nH]c(-c2nc(N)ncc2C#Cc2ccc(N)cc2)cc1C(N)=O [compound 8, 5-{2-Amino-5-[(4-aminophenyl)ethynyl]pyrimidin-4-yl}-2-(5-chloro-2-methylphenyl)-1H-pyrrole-3-carboxamide] | 2 | 1 | 140
COc1ccc(NC2CCN(C)CC2)cc1C#Cc1cnc(N)nc1-c1cc(C(N)=O)c(-c2cc(Cl)ccc2C)[nH]1 [compound 22, 5-[2-Amino-5-({2-methoxy-5-[(1-methylpiperidin-4-yl)amino]phenyl}ethynyl)pyrimidin-4-yl]-2-(5-chloro-2-methylphenyl)-1H-pyrrole-3-carboxamide] | 9 | 2 | 430
Cc1ccc(Cl)cc1-c1[nH]c(-c2nc(N)ncc2C#Cc2cccc(CN3CCN(C)CC3)c2)cc1C(N)=O [compound 24, 5-[2-Amino-5-({3-[(4-methylpiperazin-1-yl)methyl]phenyl}ethynyl)pyrimidin-4-yl]-2-(5-chloro-2-methylphenyl)-1H-pyrrole-3-carboxamide] | 5 | 2 | 330
Cc1ccc(Cl)cc1-c1[nH]c(-c2nc(N)ncc2C#Cc2ccc(N3CCC(N4CCN(C)CC4)CC3)cc2)cc1C(N)=O [compound 25, 5-[2-Amino-5-({4-[4-(4-methylpiperazin-1-yl)piperidin-1-yl]phenyl}ethynyl)pyrimidin-4-yl]-2-(5-chloro-2-methylphenyl)-1H-pyrrole-3-carboxamide] | 10 | 2 | 170
Cc1ccc(Cl)cc1-c1[nH]c(-c2nc(N)ncc2C#Cc2ccc(N3CCC(O)CC3)cc2)cc1C(N)=O [compound 28, 5-(2-Amino-5-{[4-(4-hydroxypiperidin-1-yl)phenyl]ethynyl}pyrimidin-4-yl)-2-(5-chloro-2-methylphenyl)-1H-pyrrole-3-carboxamide] | 1 | 1 | 330
